For data set [1] the following is noted: cited from earlier work.
Data set [2] in a line: Measurement of lipophilicity (octanol/ammonium bicarbonate partitioning, LC-MS). The settings on record: n-octanol / 50 mM ammonium bicarbonate, pH 8.
Description: (§5) Measurement of lipophilicity. Partitioning Method: 2 μL of 10 mM stock solutions of each target compound was added to a 1 mL each of 50 mM ammonium bicarbonate (pH=8), and 1 mL of n-octanol in an Eppendorf tube. The resulting two-phase mixture was vortexed and then shaken for 18 h at 20° C. The two phases were then carefully separated into the aqueous sample (bottom layer), and organic sample (top-layer) and placed separately in autosampler vials and analyzed by LC-MS/MS. LC-MS Method: a Thermo q-Exactive Plus LC-MS equipped with an Ultimate 3000 HPLC was operated in negative ion mode after optimized to detect the [M− H]^− of the bile acids. […] A Dikma Inspire C8 column (3 μm particle size, 100 mm length, 4.6 mm ID) was used for analysis. Each injection was 5 μL, and a constant flow rate of 0.400 L/min was used. The gradient started at 0% B and was held constant for 2 minutes. Then the mobile phase composition was linearly changed to 100% B over 8 minutes and held at 100% for the following 5 minutes. The mobile phase composition was changed to 0% B over the following 0.1 minutes and the system was allowed to equilibrate to starting conditions over 1.9 minutes. Standards of all targets were used to establish retention times. Better than 2 ppm mass accuracy was obtained on all measurements. The LC-MS analysis was done in triplicate, while the partitioning was done once for each target's [M− H]^− ion. Calculation of log D: the total response of target in octanol was divided by the total response in the aqueous phase to get a partitioning coefficient. Then, log base 10 was taken and reported.
The test system of data set [3] is T cells. The data set can be described thus: ROS, mitochondrial mass and membrane potential (mitoSOX, DCFDA, MitoTracker, JC-1). The conditions noted are these: 48 h. The class given is cell-based, mouse. The protocol:
Chromatin obtained from DMSO- and isoalloLCA-treated WT cells was immunoprecipitated with IgG, anti-H3K27Ac, anti-P300, or anti-H3K4me1 antibodies, followed by real-time PCR analysis (n=3/group). Primers targeting FoxP3 promoter (Pro), CNS1, CNS2 and CNS3 region and hsp90 promoter were used for qPCR quantification. Relative enrichment was calculated as fold change relative to the ChIP signal at the FoxP3 promoter of the DMSO-treated control. d and e, Flow cytometry and quantification of CD4^+ T cells stained intracellularly for FoxP3. […] Their mitochondrial and cytoplasmic ROS were measured by mitoSOX (h) and 2′,7′-dichlorofluorescein diacetate (DCFDA) (i), respectively. Total mitochondria mass was measured by MitoTracker (j) and the mitochondrial membrane potential measured by JC-1 dye (k). MFIs of different treatments were normalized as fold changes to those of DMSO control (n=3/group).
In Vitro T Cell Culture. Naïve CD4^+ (CD62L^+ CD44^− CD25^− CD4^+) T cells were isolated from the spleens and the lymph nodes of mice of designated genotypes with FACS sorting. For certain experiments, naïve CD4^+ T cells were enriched using naïve CD4^+ T cell isolation kits (Miltenyi). […]

The test system of data set [4] is naïve CD4+ T cells (Treg differentiation, FoxP3). The data set is described as follows: In vitro Treg differentiation, FoxP3 staining by flow cytometry. The class given is cell-based, mouse. The conditions noted are these: for FoxP3 expression / Treg differentiation in cells lacking CNS3: CNS3 knockout cells. From the text: To determine if bile acids influence T cell functions, the present inventors performed a small-scale screening assay with a small molecule library comprising secondary bile acids with in vitro Treg differentiation as a read-out. Naïve CD4^+ T lymphocytes were sorted from wild-type B6 mice and cultured in the presence of a TCR stimulus, interleukin 2 (IL-2), and different amounts of TGFβ (optimized for Treg differentiation). Treg differentiation was quantified at the single cell level by staining with an antibody specific for FoxP3, followed by flow cytometry analysis. Retinoic acid, a known enhancer of Treg differentiation, was used as a positive control.
(§1) Our screen included both primary bile acids, synthesized by the host, and secondary bile acids, produced by bacterial modification of primary bile acids (FIG. 5). Naïve CD4^+ T cells were isolated from wild-type C57BL/6J (B6) mice and cultured with bile acids under Th17 differentiation conditions and, as a counter-screen, Treg differentiation conditions (FIG. 6).
(§2) In Vitro T Cell Culture. Naïve CD4^+ (CD62L^+ CD44^− CD25^− CD4^+) T cells were isolated from the spleens and the lymph nodes of mice of designated genotypes with FACS sorting. For certain experiments, naïve CD4^+ T cells were enriched using naïve CD4^+ T cell isolation kits (Miltenyi). Naïve CD4^+ T cells (40,000 cells) were cultured in a 96-well plate pre-coated with hamster IgG (MP Biomedicals) in T cell medium (RPMI, 10% fetal bovine serum, 25 mM glutamine, 55 μM 2-mercaptoethanol, 100 U/mL penicillin, […] streptomycin) supplemented with 0.25 μg/mL anti-CD3 (clone 145-2C11) and 1 μg/mL anti-CD28 (clone 37.51). For Th0 culture, T cells were cultured with the addition of 100 U/mL of IL-2 (PEPROTECH). For Th1 cell differentiation, T cells were cultured with the addition of 100 U/mL of IL-2, 10 μg/mL of anti-IL-4 (clone 11B11) and 10 ng/mL of IL-12 (PEPROTECH). For Th2 cell differentiation, T cells were cultured with the addition of 10 μg/mL of anti-IFNγ (clone XMG1.2) and 10 ng/mL of IL-4 (R&D Systems). For Th17 cell differentiation, T cells were cultured with the addition of 10 ng/mL of IL-6 (eBioscience) and 0.5 ng/mL of TGF-β (PEPROTECH). For Treg culture, T cells were cultured with the addition of 100 U/mL of IL-2 and various concentrations of TGF-β. […] Bile acids, retinoic acid (Sigma) or mitoQ (Focus Biomolecules), or mitoPQ (Sigma) were added either at 0 or 16 h time points. Compounds with low water solubility were sonicated before adding to the culture. Cells were harvested and assayed by flow cytometry on day 3. For ROS and mitochondrial membrane potential detection, cells cultured for 2 days were incubated with 5 μM of mitoSOX (ThermoFisher), 10 μM of DCFDA (Sigma) or 2 μM of JC-1 (ThermoFisher) for 30 min and assayed with flow cytometry.
(§3) Flow Cytometry. Cells harvested from in vitro culture or in vivo mice experiments were stimulated with 50 ng/mL PMA (Phorbol 12-myristate 13-acetate, Sigma) and 1 μM ionomycin (Sigma) in the presence of GolgiPlug (BD) for 4 h to determine cytokine expression. After stimulation, cells were stained with cell surface marker antibodies and LIVE/DEAD Fixable dye, Aqua, to exclude dead cells, fixed and permeabilized with a FoxP3/Transcription factor staining kit (eBioscience), followed by staining with cytokine- and/or transcription factor-specific antibodies. All flow cytometry analyses were performed on an LSR II flow cytometer (BD) and data were analyzed with FlowJo software (TreeStar).

Data set [5] deals with CD4+ T cells. The settings on record: for cell viability: 3-day culture.
Description: Representative FACS plots of CD4^+ T cells cultured for 3 days and stained intracellularly for FoxP3 (e). Quantification of FoxP3^+ and viable T cells after 3-day culture (f) (n=2/group). n, number of biologically independent samples. Data are representative of two independent experiments (b, d). Data in (c) are shown as the mean±standard deviation.
Naïve CD4^+ T cells were isolated from FoxP3-IRES-GFP mice. d, Flow cytometry of CD4^+ T cells stained intracellularly for FoxP3. Naïve CD4^+ T cells isolated from WT, CNS1, CNS2 or CNS3 knockout mice (n=3/group) were cultured with anti-CD3/28 and IL-2, LCA (20 μM), TGF-β (0.05 ng/ml) and additional retinoic acid (RA; 1 ng/ml). e and f, Flow cytometry (e) and its quantification (f) of CD4^+ T cells stained intracellularly for FoxP3. […] Data are representative of two independent experiments (c, d). Data are shown as the mean±standard deviation by unpaired t-test with 2-tailed p-value.
as §3

Data set [6] has as its system naïve CD4+ T cells (Th17 differentiation, IL-17a). The data set can be described thus: In vitro Th17 differentiation, IL-17a staining by flow cytometry. The class given is cell-based, mouse. The settings on record: for Th17 cell differentiation (IL-17a): bile acids 20 μM, 3 days, IL-6 and TGF-β.
Description: as §1, §2, §3

The nature of data set [7]: physchem. The conditions noted are these: pH 8.
Description: as §5
For data set [8], the target named is T1, recombinant human RORγt ligand-binding domain (LBD) (Homo sapiens, UniProt P51449).
T1 sequence (P51449 269-508 limits assumed): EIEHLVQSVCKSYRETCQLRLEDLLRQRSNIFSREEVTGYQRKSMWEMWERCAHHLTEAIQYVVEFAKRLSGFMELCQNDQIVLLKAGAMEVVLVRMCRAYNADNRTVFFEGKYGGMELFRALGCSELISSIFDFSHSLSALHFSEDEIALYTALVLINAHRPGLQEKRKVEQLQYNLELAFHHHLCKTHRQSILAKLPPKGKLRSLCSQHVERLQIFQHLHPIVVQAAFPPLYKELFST
The data set can be described thus: Microscale thermophoresis assay. The settings on record: MST. The protocol: (§4) We next examined if 3-oxoLCA physically interacts with the RORγt protein in vitro. A microscale thermophoresis (MST) assay was performed with recombinant human RORγt ligand-binding domain (LBD). […] Next, we examined if 3-oxoLCA modulates the transcriptional activity of RORγt. We assayed the effect of the bile acids on firefly luciferase expression directed by a fusion protein of RORγt and Gal4-DBD (DNA-binding domain) in human embryonic kidney (HEK) 293 cells^14.
Microscale Thermophoresis Assay. The binding affinity of the compounds with RORγ ligand-binding domain (LBD) was analyzed by microscale thermophoresis (MST). Purified RORγ-LBD was labeled with the Monolith NT™ Protein Labeling Kit RED (NanoTemper Technologies). Serially-diluted compounds, with concentrations of 1 mM to 20 nM, were mixed with 55 nM labeled RORγ-LBD at room temperature and loaded into Monolith™ standard-treated capillaries. Binding was measured by monitoring the thermophoresis with 20% LED power and ‘Medium’ MST power on a Monolith NT.115 instrument (Nano Temper Technologies) with the following time setting: 5s Fluo, Before; 20s MST On; and 5s Fluo, After. Kd values were fitted using the NT Analysis software (Nano Temper Technologies).

Data set [9] relates to fusion protein of RORγt and Gal4-DBD. The data set can be described thus: RORγt luciferase reporter assay in HEK293 cells. The class given is cell-based, human. The conditions noted are these: ML209 2 μM, bile acids 10 μM. The method, then: Data are shown as the mean±standard deviation by unpaired t-test with 2-tailed p-value.
as §4

Where two headings read alike, the source gives them in different places.

Regarding `C[C@H](CCC(=O)O)[C@H]1CC[C@H]2[C@@H]3[C@H](O)C[C@@H]4C[C@H](O)CC[C@]4(C)[C@H]3CC[C@]12C` [CDCA, Chenodeoxycholic acid], the “Log D (pH = 8.0), previously reported” value in [1] is reported as 2.2. On to `CC[C@H]1[C@@H](O)[C@@H]2[C@H](CC[C@]3(C)[C@@H]([C@H](C)CCC(=O)O)CC[C@@H]23)[C@@]2(C)CC[C@@H](O)C[C@@H]12` [OCA, Obeticholic acid], for which the log distribution coefficient (logD) at 18 h in data set [2] is 2.5. On to `C[n+]1ccc(-c2cc[n+](CCCCCCCCCC[P+](c3ccccc3)(c3ccccc3)c3ccccc3)cc2)cc1.[I-].[I-].[I-]` [mitoPQ, mitoParaquat, reference compound], for which, in data set [3], the “mitochondrial ROS (mitoROS) production” value is “sufficient to enhance mitoROS production”. In data set [4], the “FoxP3 expression / Treg differentiation in cells lacking CNS3” value is “required the CNS3 enhancer and TGF-β”. Further, the “Treg differentiation (FoxP3 expression)” value in data set [4] (bile acids 20 μM, 3 days, anti-CD3/28, IL-2) was “sufficient to enhance mitoROS production and Treg differentiation in a dose-dependent manner”.

Regarding `C[C@H](CCC(=O)O)[C@H]1CC[C@H]2[C@@H]3[C@@H](O)C[C@@H]4C[C@H](O)CC[C@]4(C)[C@H]3CC[C@]12C` [UDCA, Ursodeoxycholic acid], the “Log D (pH = 8.0), previously reported” value in [1] is 2.2. For the compound `CCNC(=O)C[C@@H]1N=C(c2ccc(Cl)cc2)c2cc(OC)ccc2-n2c(C)nnc21` [iBET, reference compound], the “effect on isoalloLCA-dependent enhancement of FoxP3” value in data set [4] (isoalloLCA 20 μM, TGF-β 0.05 ng/mL) is given as “prevented isoalloLCA-dependent enhancement of FoxP3 in a dose-dependent manner”.

As for `C[C@H](CCC(=O)NCC(=O)O)[C@H]1CC[C@H]2[C@@H]3CC[C@H]4C[C@@H](O)CC[C@]4(C)[C@H]3CC[C@]12C` [Glyco-isoalloLCA], the “cytotoxicity compared to isoalloLCA” value in data set [5] (10 or 20 μM) was “enhanced cytotoxicity at 10 or 20 μM compared to isoalloLCA”. With `C[C@H](CCC(=O)O)[C@H]1CC[C@H]2[C@@H]3CC[C@H]4C[C@@H](O)CC[C@]4(C)[C@H]3CC[C@]12C` [isoalloLCA, Isoallolithocholic acid], the “reduction of Th17 cell differentiation” value in data set [6] (20 μM) is on record as about 50%. Besides, the pH-dependent lipophilicity (logD) at 18 h in [7] is 2.2. In addition, the cell viability entry in [5] is “do not significantly affect cell proliferation, cell viability”; in [5] (listed as IsoalloLCA), “did not impair cell viability”. On to `C[C@H](CCC(=O)O)[C@H]1CC[C@H]2[C@@H]3CC[C@@H]4CC(=O)CC[C@]4(C)[C@H]3C[C@H](O)[C@]12C` [3-oxoDCA, 3-oxodeoxycholic acid, reference compound], for which, in [8], the “Kd relative to 3-oxoLCA” value is listed as about 20 times. The “Th17 cell differentiation (IL-17a)” value in [6] is “Neither 3-oxoCA nor 3-oxoDCA inhibited Th17 cell differentiation as robustly as 3-oxoLCA”. The compound `C[C@H](CCC(=O)O)[C@H]1CC[C@H]2[C@@H]3CC[C@@H]4C[C@H](O)CC[C@]4(C)[C@H]3CC[C@]12C` [LCA, Lithocholic acid] displayed a pH-dependent lipophilicity (logD) at 18 h in data set [7] of 3.6. Regarding `C[C@H](CCC(=O)O)[C@H]1CC[C@H]2[C@@H]3[C@H](O)C[C@@H]4CC(=O)CC[C@]4(C)[C@H]3C[C@H](O)[C@]12C` [3-oxoCA, 3-oxocholic acid, reference compound], the “Kd relative to 3-oxoLCA” value in data set [8] is listed as about 20 times. Besides, in data set [6], the “Th17 cell differentiation (IL-17a)” value is recorded as “Neither 3-oxoCA nor 3-oxoDCA inhibited Th17 cell differentiation as robustly as 3-oxoLCA”. Take `C[C@H](CCC(=O)O)[C@H]1CC[C@H]2[C@@H]3CC[C@@H]4C[C@@H](O)CC[C@]4(C)[C@H]3CC[C@]12C` [isoLCA, Isolithocholic acid]: in [7], the log distribution coefficient (logD) at 18 h came out at 3.5. Consider `COc1cc(O)c(C(CC(=O)N2C[C@H](C)C[C@H](C)C2)c2ccc3c(c2)OCO3)c(OC)c1` (stereo partly shown) [ML209, reference compound], for which, in [9], the RORγt reporter activity result is “completely lost RORγt activity”. The compound `C[C@H](CCC(=O)O)[C@H]1CC[C@H]2[C@@H]3CC[C@@H]4C[C@H](O)CC[C@]4(C)[C@H]3C[C@H](O)[C@]12C` [DCA, Deoxycholic acid] registered a logD at 18 h in data set [2] of 2.7. As to TGF-β: cytokine used for Treg culture, the “FoxP3 expression / Treg differentiation in cells lacking CNS3” value in [4] is given as “boosted Treg differentiation in CNS3-deficient cells, albeit with reduced efficiency”. For the compound `C[C@H](CCC(=O)O)[C@H]1CC[C@H]2[C@@H]3CC[C@H]4C[C@H](O)CC[C@]4(C)[C@H]3CC[C@]12C` [alloLCA, Allolithocholic acid], the “Log D (pH = 8.0)” value is recorded as 3.5.

Source of the values: patent publication US12103946B2, “Steroid compounds as Treg modulators and uses thereof” (New York University, priority 2018, dated 2024).
